Data reported in patent publication US20210138025A1, “CATIONIC PEPTIDES WITH IMMUNOMODULATORY AND/OR ANTI-BIOFILM ACTIVITIES” (priority 2018, published 2021).
Non-standard residues stand in square brackets, D forms with d. Residues, ends and D or L forms follow the SMILES beside them.

Experiments:
Format in all cases: cell-based
monocytes [1] = experiment: Cytokine production in unstimulated monocytes, bovine (Table 22); conditions: background subtracted
Method: (§1) A subset of peptides was tested for stimulation of cytokine production in monocytes (Table 22). For the tested cytokines, the peptides tended to show anti-inflammatory activity rather than […] activity.

monocytes [2] = experiment: Cytokine production in unstimulated monocytes, canine (Table 22); conditions: background subtracted
Method: as §1

LPS stimulated monocytes = experiment: Anti-inflammatory activity in LPS stimulated monocytes, bovine (Table 23); conditions: 32 μg/ml peptide, negative = increase
[3] = test system: ConA stimulated monocytes; experiment: Anti-inflammatory activity in ConA stimulated monocytes, canine (Table 23); conditions: 32 μg/ml peptide, negative = increase
T-lymphocytes [4] = experiment: Cytokine production in T-lymphocytes, bovine (Table 24); conditions: no additional stimulant, background (NONE) subtracted
T-lymphocytes [5] = experiment: Cytokine production in T-lymphocytes, canine (Table 24); conditions: no additional stimulant, background (NONE) subtracted
T-lymphocytes [6] = experiment: Anti-inflammatory activity towards stimulated T-lymphocytes, bovine (Table 25); conditions: Bovine T-cells, 32 μg/ml of peptide
T-lymphocytes [7] = experiment: Anti-inflammatory activity towards stimulated T-lymphocytes, canine (Table 25); conditions: Canine T-cells, 32 μg/ml of peptide

## CC[C@@H](C)[C@@H](NC(=O)[C@@H](C)NC(=O)[C@@H](CCCNC(=N)N)NC(=O)[C@@H](Cc1c[nH]c2ccccc12)NC(=O)[C@@H](CCC(N)=O)NC(=O)[C@H](N)C(C)C)C(=O)N[C@H](CCCNC(=N)N)C(=O)N[C@@H](C(=O)N[C@H](CCCNC(=N)N)C(=O)N[C@@H](C(=O)N[C@@H](C(=O)N[C@H](CCCNC(=N)N)C(N)=O)[C@H](C)CC)C(C)C)C(C)C [DJK5, VQWRAIRVRVIR] (H-[dV][dQ][dW][dR][dA][dI][dR][dV][dR][dV][dI][dR]-NH2; N-terminus and C-terminus assumed)
Monocytes [1]
  Concentration of Monocyte cytokine TNFα in absence of additional stimulant: -218 pg/mL
Monocytes [2]
  Concentration of Monocyte cytokine IFNγ in absence of additional stimulant: -310 pg/mL
  Concentration of Monocyte cytokine IL-2 in absence of additional stimulant: 86 pg/mL
  Concentration of Monocyte cytokine IL-4 in absence of additional stimulant: -241 pg/mL
  Concentration of Monocyte cytokine IL-6 in absence of additional stimulant: -113 pg/mL
  Concentration of Monocyte cytokine IL-13 in absence of additional stimulant: -25 pg/mL
  Concentration of Monocyte cytokine TNFα in absence of additional stimulant: -73 pg/mL
LPS stimulated monocytes
  % Monocyte cytokine decrease in presence of LPS/ConA, IFNγ: 31.6%
  % Monocyte cytokine decrease in presence of LPS/ConA, IL-2: 34.0%
  % Monocyte cytokine decrease in presence of LPS/ConA, IL-4: 3.9%
  % Monocyte cytokine decrease in presence of LPS/ConA, IL-6: 21.0%
  % Monocyte cytokine decrease in presence of LPS/ConA, IL-13: 65.5%
  % Monocyte cytokine decrease in presence of LPS/ConA, TNFα: 68.1%
[3]
  % Monocyte cytokine decrease in presence of LPS/ConA, IFNγ: 13.7%
  % Monocyte cytokine decrease in presence of LPS/ConA, IL-2: 38.9%
  % Monocyte cytokine decrease in presence of LPS/ConA, IL-4: 32.6%
  % Monocyte cytokine decrease in presence of LPS/ConA, IL-6: 39.9%
  % Monocyte cytokine decrease in presence of LPS/ConA, IL-13: 36.5%
  % Monocyte cytokine decrease in presence of LPS/ConA, TNFα: 44.3%
T-lymphocytes [4]
  Concentration of T-cell cytokines in the absence of additional stimulant: IFNγ: -12 pg/mL
  Concentration of T-cell cytokines in the absence of additional stimulant: IL-2: -66 pg/mL
  Concentration of T-cell cytokines in the absence of additional stimulant: IL-4: -73 pg/mL
  Concentration of T-cell cytokines in the absence of additional stimulant: IL-6: -92 pg/mL
  Concentration of T-cell cytokines in the absence of additional stimulant: IL-13: 178 pg/mL
  Concentration of T-cell cytokines in the absence of additional stimulant: TNFα: 113 pg/mL
T-lymphocytes [5]
  Concentration of T-cell cytokines in the absence of additional stimulant: IFNγ: 11 pg/mL
  Concentration of T-cell cytokines in the absence of additional stimulant: IL-2: 13 pg/mL
  Concentration of T-cell cytokines in the absence of additional stimulant: IL-4: 71 pg/mL
  Concentration of T-cell cytokines in the absence of additional stimulant: IL-6: 149 pg/mL
  Concentration of T-cell cytokines in the absence of additional stimulant: IL-13: -100 pg/mL
  Concentration of T-cell cytokines in the absence of additional stimulant: TNFα: -46 pg/mL
T-lymphocytes [6]
  % Cytokine decrease in the presence of LPS/ConA: IFNγ: 34.9%
  % Cytokine decrease in the presence of LPS/ConA: IL-2: 80.7%
  % Cytokine decrease in the presence of LPS/ConA: IL-4: 37.7%
  % Cytokine decrease in the presence of LPS/ConA: IL-6: −16.4%
  % Cytokine decrease in the presence of LPS/ConA: IL-13: 85.3%
  % Cytokine decrease in the presence of LPS/ConA: TNFα: 38.2%
T-lymphocytes [7]
  % Cytokine decrease in the presence of LPS/ConA: IFNγ: 60.2%
  % Cytokine decrease in the presence of LPS/ConA: IL-2: 62.3%
  % Cytokine decrease in the presence of LPS/ConA: IL-4: 65.5%
  % Cytokine decrease in the presence of LPS/ConA: IL-6: 24.8%
  % Cytokine decrease in the presence of LPS/ConA: IL-13: 48.2%
  % Cytokine decrease in the presence of LPS/ConA: TNFα: 7.1%
